pIC50: −log10 of the molar value. Active and inactive are the calls of the source.
What was measured:
MDA-MB-231 [1] = experiment: Antiproliferative activity against human MDA-MB-231 cells harboring wild type BRCA and c-Met amplification assessed as inhibition of cell growth incubated for 7 days by MTT assay; type: functional, cell-based; settings: MDA-MB-231, 168 h
[2] = target: T1, Poly [ADP-ribose] polymerase 1 (Homo sapiens, UniProt P09874); experiment: Inhibition of PARP1 (unknown origin) using histone as substrate incubated for 45 mins by absorbance based analysis
[3] = target: T2, Hepatocyte growth factor receptor (Homo sapiens, UniProt P08581); experiment: Inhibition of c-Met (unknown origin) by HTRF method
[4] = target: T2, Hepatocyte growth factor receptor; experiment: Inhibition of c-Met (unknown origin) at 100 nM by HTRF method relative to control
[5] = target: T2, Hepatocyte growth factor receptor; experiment: Inhibition of c-Met (unknown origin) at 1 uM relative to control
MDA-MB-231 [6] = experiment: Antitumor activity against human MDA-MB-231 cells xenografted in female Balb/c nude mouse assessed as reduction in Ki67 expression in tumor at 50 mg/kg/day, ip qd administered for 28 days by immunohistochemistry analysis; type: functional, organism-based; settings: time 28.0 day
MDA-MB-231 [7] = experiment: Antitumor activity against human MDA-MB-231 cells xenografted in female Balb/c nude mouse assessed as induction of apoptosis by measuring upregulation of cleaved caspase-3 expression in tumor at 50 mg/kg/day, ip qd administered for 28 days by immunohistochemistry analysis; type: functional, organism-based; settings: time 28.0 day
[8] = tested on: Olaparib-resistant HCT116; experiment: Antitumor activity against human Olaparib-resistant HCT116 cells xenografted in female Balb/c nude mouse assessed as reduction in tumor weight at 25 to 100 mg/kg/day, ip qd administered for 21 days; type: functional, organism-based; settings: dose 25-100 mg/kg/day, time 21.0 day
MDA-MB-231 [9] = experiment: Inhibition of PARP1/c-Met protein-protein interaction in H2O2 stimulated human MDA-MB-231 cells at 0.5 uM incubated for 72 hrs by proximity ligation assay; type: cell-based
MDA-MB-231 [10] = experiment: Antitumor activity against human MDA-MB-231 cells xenografted in female Balb/c nude mouse assessed as induction of DNA damage by measuring increase in gammaH2AX expression in tumor at 50 mg/kg/day, ip qd administered for 28 days by immunohistochemistry analysis; type: functional, organism-based; settings: time 28.0 day
[11] = target: ALK tyrosine kinase receptor (Homo sapiens) (UniProt Q9UM73); experiment: Inhibition of ALK (unknown origin) at 1 uM relative to control
MDA-MB-231 [12] = experiment: Antitumor activity against human MDA-MB-231 cells xenografted in female Balb/c nude mouse assessed as reduction in BRCA1 expression in tumor at 50 mg/kg/day, ip qd administered for 28 days by immunohistochemistry analysis; type: functional, organism-based; settings: time 28.0 day
[13] = target: T2, Hepatocyte growth factor receptor; experiment: Binding affinity to c-Met in human MDA-MB-231 cells assessed as thermal stabilization at 1 uM at 43 to 55 degreeC incubated for 12 hrs by CETSA; type: cell-based
MDA-MB-231 [14] = experiment: Effect on c-MET […] in human MDA-MB-231 cells with H2O2-induced oxidative stress at 0.5 uM by RT-qPCR analysis; type: functional, cell-based
MDA-MB-231 [15] = experiment: Antiproliferative activity against human MDA-MB-231 cells assessed as inhibition of cell growth assessed as reduction in colony formation at 0.5 to 1 uM incubated for 14 days by crystal violet staining based microscopic analysis; type: functional; settings: dose 0.5-1 µM, time 14.0 day
MDA-MB-231 [16] = experiment: Induction of DNA damage in human MDA-MB-231 cells assessed as increase in gammaH2AX expression at 0.5 to 1 uM incubated for 3 days by immunofluorescence based laser confocal microscopic analysis; type: functional, cell-based; settings: dose 0.5-1 µM, time 3.0 day
MDA-MB-231 [17] = experiment: Effect on PARP1 protein expression in human MDA-MB-231 cells with H2O2-induced oxidative stress at 0.5 uM incubated for 72 hrs by Western blot analysis; type: functional, cell-based
MDA-MB-231 [18] = experiment: Induction of DNA damage in human MDA-MB-231 cells assessed as increase in tail DNA at 0.5 uM incubated for 72 hrs by comet assay; type: functional, cell-based
MDA-MB-231 [19] = experiment: Downregulation of PAR protein level in human MDA-MB-231 cells with H2O2-induced oxidative stress at 0.5 uM incubated for 72 hrs by Western blot analysis; type: functional, cell-based
MDA-MB-231 [20] = experiment: Downregulation of phosphorylated AKT level in human MDA-MB-231 cells with H2O2-induced oxidative stress at 0.5 uM […]; type: functional, cell-based
MDA-MB-231 [21] = experiment: Effect on PARP1 […] in human MDA-MB-231 cells with H2O2-induced oxidative stress at 0.5 uM by RT-qPCR analysis; type: functional, cell-based
[22] = target: Proto-oncogene tyrosine-protein kinase ROS (Homo sapiens) (UniProt P08922); experiment: Inhibition of ROS1 (unknown origin) at 1 uM relative to control
MDA-MB-231 [23] = experiment: Effect on homologous recombination in human MDA-MB-231 cells assessed as reduction in Rad51 mRNA level by measuring disruption of BRCA1-BRCA2-Rad51 complex formation at 0.5 uM by RT-qPCR analysis; type: functional, cell-based
MDA-MB-231 [24] = experiment: Downregulation of phosphorylated c-MET protein level in human MDA-MB-231 cells with H2O2-induced oxidative stress at 0.5 uM incubated for 72 hrs by Western blot analysis; type: functional, cell-based
MDA-MB-231 [25] = experiment: Induction of G2/M phase cell cycle arrest in human MDA-MB-231 cells at 0.5 to 1 uM incubated for 4 days by PI staining based flow cytometry analysis; type: functional; settings: dose 0.5-1 µM, time 4.0 day
MDA-MB-231 [26] = experiment: Downregulation of phosphorylated AKT level in human MDA-MB-231 cells with H2O2-induced oxidative stress at 0.5 uM incubated for 72 hrs by Western blot analysis; type: functional, cell-based
MDA-MB-231 [27] = experiment: Antitumor activity against human MDA-MB-231 cells xenografted in female Balb/c nude mouse assessed as reduction in tumor weight at 12.5 to 50 mg/kg/day, ip qd administered for 28 days; type: functional, organism-based; settings: dose 12.5-50 mg/kg/day, time 28.0 day
MDA-MB-231 [28] = experiment: Effect on homologous recombination in human MDA-MB-231 cells assessed as reduction in Rad51 protein level by measuring disruption of BRCA1-BRCA2-Rad51 complex formation at 0.5 uM incubated for 72 hrs by Western blot analysis; type: functional, cell-based
[29] = target: T1, Poly [ADP-ribose] polymerase 1; experiment: Binding affinity to PARP1 in human MDA-MB-231 cells assessed as thermal stabilization at 1 uM at 43 to 55 degreeC incubated for 12 hrs by CETSA; type: cell-based
MDA-MB-231 [30] = experiment: Effect on homologous recombination in human MDA-MB-231 cells assessed as reduction in BRCA2-Rad51 complex formation at 0.5 uM incubated for 72 hrs by proximity ligation assay; type: functional, cell-based
[31] = tested on: Olaparib-resistant HCT116; experiment: Antitumor activity against human Olaparib-resistant HCT116 cells xenografted in female Balb/c nude mouse assessed as reduction in tumor weight at 5 mg/kg/day, iv qd administered for 21 days; type: functional, organism-based; settings: time 21.0 day
MDA-MB-231 [32] = experiment: Effect on c-MET protein expression in human MDA-MB-231 cells with H2O2-induced oxidative stress at 0.5 uM incubated for 72 hrs by Western blot analysis; type: functional, cell-based
MDA-MB-231 [33] = experiment: Effect on BRCA2 protein level in human MDA-MB-231 cells at 0.5 uM incubated for 72 hrs by Western blot analysis; type: functional, cell-based
MDA-MB-231 [34] = experiment: Downregulation of phosphorylated c-MET mRNA level in human MDA-MB-231 cells with H2O2-induced oxidative stress at 0.5 uM by RT-qPCR analysis; type: functional, cell-based
MDA-MB-231 [35] = experiment: Downregulation of PAR mRNA level in human MDA-MB-231 cells with H2O2-induced oxidative stress at 0.5 uM by RT-qPCR analysis; type: functional, cell-based
MDA-MB-231 [36] = experiment: Induction of DNA damage in human MDA-MB-231 cells assessed as increase in gammaH2AX protein level at 0.5 uM incubated for 72 hrs by Western blot analysis; type: functional, cell-based
MDA-MB-231 [37] = experiment: Effect on BRCA2 mRNA level in human MDA-MB-231 cells at 0.5 uM by RT-qPCR analysis; type: functional, cell-based
MDA-MB-231 [38] = experiment: Induction of DNA damage in human MDA-MB-231 cells assessed as increase in gammaH2AX […] analysis; type: functional, cell-based
MDA-MB-231 [39] = experiment: Effect on homologous recombination in human MDA-MB-231 cells assessed as reduction in BRCA1 protein level by measuring disruption of BRCA1-BRCA2-Rad51 complex formation at 0.5 uM incubated for 72 hrs by Western blot analysis; type: functional, cell-based
MDA-MB-231 [40] = experiment: Effect on homologous recombination in human MDA-MB-231 cells assessed as reduction in Rad51 nuclear level at 0.5 to 1 uM incubated for 72 hrs by immunofluorescence analysis; type: functional, cell-based; settings: dose 0.5-1 µM
MDA-MB-231 [41] = experiment: Effect on homologous recombination in human MDA-MB-231 cells assessed as reduction in BRCA1 mRNA level by measuring disruption of BRCA1-BRCA2-Rad51 complex formation at 0.5 uM by RT-qPCR analysis; type: functional, cell-based

T1 sequence (P09874 whole entry): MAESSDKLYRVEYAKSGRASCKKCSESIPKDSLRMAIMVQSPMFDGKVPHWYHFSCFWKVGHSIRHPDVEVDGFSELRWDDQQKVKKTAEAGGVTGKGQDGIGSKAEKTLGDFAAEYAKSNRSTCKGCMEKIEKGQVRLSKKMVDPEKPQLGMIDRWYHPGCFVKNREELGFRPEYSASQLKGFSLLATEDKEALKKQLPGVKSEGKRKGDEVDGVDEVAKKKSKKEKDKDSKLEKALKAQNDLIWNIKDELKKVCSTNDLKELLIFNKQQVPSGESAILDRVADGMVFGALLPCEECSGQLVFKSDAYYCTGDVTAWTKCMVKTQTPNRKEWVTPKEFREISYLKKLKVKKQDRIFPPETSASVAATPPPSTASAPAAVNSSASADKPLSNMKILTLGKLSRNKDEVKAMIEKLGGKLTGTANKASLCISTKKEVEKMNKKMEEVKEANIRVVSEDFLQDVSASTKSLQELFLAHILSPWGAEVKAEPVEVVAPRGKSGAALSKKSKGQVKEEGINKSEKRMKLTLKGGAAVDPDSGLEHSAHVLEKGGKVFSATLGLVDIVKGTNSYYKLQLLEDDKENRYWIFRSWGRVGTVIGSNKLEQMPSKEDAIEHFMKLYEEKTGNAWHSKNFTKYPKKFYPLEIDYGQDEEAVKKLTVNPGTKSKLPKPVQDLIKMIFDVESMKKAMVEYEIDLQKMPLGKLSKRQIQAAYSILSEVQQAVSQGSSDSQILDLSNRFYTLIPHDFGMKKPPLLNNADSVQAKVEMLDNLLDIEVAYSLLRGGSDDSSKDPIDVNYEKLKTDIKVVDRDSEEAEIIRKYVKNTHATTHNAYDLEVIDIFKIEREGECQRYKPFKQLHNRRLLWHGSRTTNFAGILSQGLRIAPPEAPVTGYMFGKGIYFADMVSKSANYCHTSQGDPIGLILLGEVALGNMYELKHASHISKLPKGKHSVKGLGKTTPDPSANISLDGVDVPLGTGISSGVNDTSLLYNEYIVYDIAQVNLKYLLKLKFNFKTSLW
T2 sequence (P08581 whole entry): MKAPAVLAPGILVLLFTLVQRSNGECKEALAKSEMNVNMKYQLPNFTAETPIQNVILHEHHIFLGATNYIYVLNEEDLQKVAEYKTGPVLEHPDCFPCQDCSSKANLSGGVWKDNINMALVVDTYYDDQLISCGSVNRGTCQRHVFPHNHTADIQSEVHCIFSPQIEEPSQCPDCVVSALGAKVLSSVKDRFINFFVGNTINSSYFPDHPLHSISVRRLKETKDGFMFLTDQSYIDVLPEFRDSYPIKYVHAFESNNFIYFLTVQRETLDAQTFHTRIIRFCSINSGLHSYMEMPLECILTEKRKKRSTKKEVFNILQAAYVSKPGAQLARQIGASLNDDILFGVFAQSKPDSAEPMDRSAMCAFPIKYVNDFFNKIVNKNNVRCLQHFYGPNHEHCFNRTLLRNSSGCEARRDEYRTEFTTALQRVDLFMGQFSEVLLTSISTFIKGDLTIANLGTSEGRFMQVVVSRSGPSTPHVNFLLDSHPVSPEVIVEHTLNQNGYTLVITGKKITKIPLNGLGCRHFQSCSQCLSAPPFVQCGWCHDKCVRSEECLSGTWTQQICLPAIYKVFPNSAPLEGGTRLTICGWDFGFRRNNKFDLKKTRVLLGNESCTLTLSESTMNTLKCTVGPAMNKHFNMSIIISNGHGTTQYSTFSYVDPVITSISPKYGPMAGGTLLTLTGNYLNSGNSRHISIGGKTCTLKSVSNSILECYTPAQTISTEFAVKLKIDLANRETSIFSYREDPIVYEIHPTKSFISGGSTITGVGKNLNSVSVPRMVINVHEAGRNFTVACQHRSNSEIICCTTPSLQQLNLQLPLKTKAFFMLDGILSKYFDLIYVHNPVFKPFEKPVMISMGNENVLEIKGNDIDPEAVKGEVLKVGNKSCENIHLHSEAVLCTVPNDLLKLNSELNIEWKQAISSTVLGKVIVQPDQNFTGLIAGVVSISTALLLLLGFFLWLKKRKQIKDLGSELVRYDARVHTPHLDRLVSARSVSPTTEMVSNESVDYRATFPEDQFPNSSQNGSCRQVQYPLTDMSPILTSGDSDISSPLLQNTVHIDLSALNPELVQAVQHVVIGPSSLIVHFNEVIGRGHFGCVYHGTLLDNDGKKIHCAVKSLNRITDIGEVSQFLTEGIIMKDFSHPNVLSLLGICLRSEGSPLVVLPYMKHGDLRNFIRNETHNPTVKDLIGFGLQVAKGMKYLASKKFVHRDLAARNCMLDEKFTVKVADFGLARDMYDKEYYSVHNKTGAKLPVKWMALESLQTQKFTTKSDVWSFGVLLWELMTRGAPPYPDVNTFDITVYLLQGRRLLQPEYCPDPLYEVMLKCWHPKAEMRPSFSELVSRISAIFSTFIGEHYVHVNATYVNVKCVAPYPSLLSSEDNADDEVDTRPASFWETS
Sequence of ALK tyrosine kinase receptor (Homo sapiens) (Q9UM73 19-1620 limits assumed): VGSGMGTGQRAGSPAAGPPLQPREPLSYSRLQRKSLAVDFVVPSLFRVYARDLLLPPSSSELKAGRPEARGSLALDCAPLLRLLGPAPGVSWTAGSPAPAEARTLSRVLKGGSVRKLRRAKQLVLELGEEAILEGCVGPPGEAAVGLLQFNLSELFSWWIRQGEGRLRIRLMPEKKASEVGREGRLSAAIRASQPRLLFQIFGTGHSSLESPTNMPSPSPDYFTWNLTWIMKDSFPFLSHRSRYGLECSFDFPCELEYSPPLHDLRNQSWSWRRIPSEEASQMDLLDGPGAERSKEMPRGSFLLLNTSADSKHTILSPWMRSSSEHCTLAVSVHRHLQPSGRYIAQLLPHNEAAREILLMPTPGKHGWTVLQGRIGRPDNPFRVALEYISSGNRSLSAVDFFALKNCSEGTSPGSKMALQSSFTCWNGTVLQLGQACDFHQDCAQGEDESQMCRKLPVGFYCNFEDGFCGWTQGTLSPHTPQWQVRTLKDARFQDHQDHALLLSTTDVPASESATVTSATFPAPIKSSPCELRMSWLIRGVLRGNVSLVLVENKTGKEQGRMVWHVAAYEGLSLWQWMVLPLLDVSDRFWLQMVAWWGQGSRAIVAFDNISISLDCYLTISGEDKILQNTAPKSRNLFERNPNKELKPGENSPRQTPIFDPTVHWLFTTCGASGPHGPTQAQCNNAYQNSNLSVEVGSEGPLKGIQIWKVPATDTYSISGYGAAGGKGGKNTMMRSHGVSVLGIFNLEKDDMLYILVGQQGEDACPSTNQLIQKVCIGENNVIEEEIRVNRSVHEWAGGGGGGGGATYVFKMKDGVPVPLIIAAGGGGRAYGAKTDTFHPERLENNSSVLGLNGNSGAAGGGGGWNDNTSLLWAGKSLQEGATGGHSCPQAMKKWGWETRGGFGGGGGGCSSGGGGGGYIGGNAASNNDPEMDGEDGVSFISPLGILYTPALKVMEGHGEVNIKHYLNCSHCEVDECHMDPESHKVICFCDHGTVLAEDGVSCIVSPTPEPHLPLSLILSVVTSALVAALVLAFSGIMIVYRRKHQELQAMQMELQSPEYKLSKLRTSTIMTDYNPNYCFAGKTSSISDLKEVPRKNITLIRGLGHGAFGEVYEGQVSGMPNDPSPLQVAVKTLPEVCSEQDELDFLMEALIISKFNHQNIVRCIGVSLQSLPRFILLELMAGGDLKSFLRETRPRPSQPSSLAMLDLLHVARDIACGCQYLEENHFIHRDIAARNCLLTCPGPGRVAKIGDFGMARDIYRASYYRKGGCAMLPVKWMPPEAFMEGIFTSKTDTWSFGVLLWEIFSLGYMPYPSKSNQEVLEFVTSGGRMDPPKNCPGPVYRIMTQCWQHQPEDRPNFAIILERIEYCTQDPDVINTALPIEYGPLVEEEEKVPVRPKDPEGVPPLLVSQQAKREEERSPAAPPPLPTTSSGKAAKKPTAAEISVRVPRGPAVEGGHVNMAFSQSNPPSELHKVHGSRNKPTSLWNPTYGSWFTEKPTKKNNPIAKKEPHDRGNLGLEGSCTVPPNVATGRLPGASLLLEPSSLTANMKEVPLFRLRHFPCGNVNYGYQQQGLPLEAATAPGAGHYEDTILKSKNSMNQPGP

O=C(c1cc(Cc2n[nH]c(=O)c3ccccc23)ccc1F)N1CCN(c2ccc3c(OCCn4nc(-c5ccccc5)ccc4=O)ccnc3c2)CC1
7.42: pIC50 [3]
8.96: pIC50 [2]
5.76: pIC50 (MDA-MB-231 [1])

CC1CN(c2ccc3c(OCCn4nc(-c5cnn(C)c5)ccc4=O)ccnc3c2)CCN1C(=O)c1cc(Cc2n[nH]c(=O)c3ccccc23)ccc1F (racemic)
7.54: pIC50 [3]
8.96: pIC50 [2]
5.26: pIC50 (MDA-MB-231 [1])

Cn1cc(-c2ccc(=O)n(CCOc3ccnc4cc(N5CCN(C(=O)c6cc(Cc7n[nH]c(=O)c8ccccc78)ccc6F)C(C)(C)C5)ccc34)n2)cn1
< 50%: inhibition [4]
< 6.00: pIC50 [2]

O=C(c1cc(Cc2n[nH]c(=O)c3ccccc23)ccc1F)N1CCN(c2ccc3c(OCCn4nc(-c5cccnc5)ccc4=O)ccnc3c2)CC1
60.3%: inhibition [11]
63%: inhibition [22]
98.3%: inhibition [5]
active: Activity (MDA-MB-231 [6]) | Activity (MDA-MB-231 [7]) | Activity [8] | inhibition (MDA-MB-231 [9]) | Activity (MDA-MB-231 [10]) | Activity (MDA-MB-231 [12]) | Activity [13] | Activity (MDA-MB-231 [15]) | Activity (MDA-MB-231 [16]) | Activity (MDA-MB-231 [18]) | Activity (MDA-MB-231 [19]) | Activity (MDA-MB-231 [20]) | Activity (MDA-MB-231 [23]) | Activity (MDA-MB-231 [24]) | Activity (MDA-MB-231 [25]) | Activity (MDA-MB-231 [26]) | Activity (MDA-MB-231 [27]) | Activity (MDA-MB-231 [28]) | Activity [29] | Activity (MDA-MB-231 [30]) | Activity [31] | Activity (MDA-MB-231 [34]) | Activity (MDA-MB-231 [35]) | Activity (MDA-MB-231 [36]) | Activity (MDA-MB-231 [38]) | Activity (MDA-MB-231 [39]) | Activity (MDA-MB-231 [40]) | Activity (MDA-MB-231 [41])
inactive: Activity (MDA-MB-231 [14]) | Activity (MDA-MB-231 [17]) | Activity (MDA-MB-231 [21]) | Activity (MDA-MB-231 [32]) | Activity (MDA-MB-231 [33]) | Activity (MDA-MB-231 [37])
